Experimental data as given in US7666985B2, “HLA-A24-restricted cancer antigen peptides” (International Institute of Cancer Immunology, Inc., priority 2002, dated 2010).
Ends that are not written are not given here.

Tests used:
[1] = system: RERF-LC-AI cells; details: PBMC effector cells stimulated with peptide; targets RERF-LC-AI (WT1+, HLA-A24+) versus WT1+/HLA-A2402- and WT1-/HLA-A24+ lung cancer lines (LK87, 11-18)
Experimental: (§1) Peripheral blood mononuclear cells were separated from healthy donors positive for HLA-A2402, and were placed into wells of a 24-well plate at 4×10^6 cells/well. To the wells, the natural peptide of SEQ ID NO: 7 or the altered peptide of SEQ ID NO: 3 was added at a concentration of 10 μM, and the mixture was incubated for a week in a culture medium comprising 45% RPMI1640, 45% AIV, 10% inactivated human AB serum, 1× nonessential amino acids, 25 ng/ml 2-mercaptoethanol, […] streptomycin, and 50 U/ml penicillin. After the incubation, the cells were adjusted to 2×10^6 cells/well, which were used as responder cells hereafter. On the other hand, peripheral blood mononuclear cells separated from the same healthy donors were incubated together with 10 μM of either of these peptides for 4 hours to accomplish the pulsing with peptide, and then radiated at 30 Gy. The cells were adjusted to 4×10^6 cells/well, which were used as stimulator cells hereafter.
(§2) The responder cells and the stimulator cells thus prepared were mixed together, and the mixture was added with IL-2 at 30 U/ml, and incubated. A similar stimulation of the responder cells with the stimulator cells was conducted three times with an interval of a week. The cytotoxic activity in those cells thus obtained was determined by ^51Cr release assay wherein the cytotoxic activity was determined by reacting the C1R-A*2402 cells positive for an HLA-A24 (Int. J. Cancer, 81, p 387, 1999) labeled with ^51Cr that were pulsed with the natural peptide of SEQ ID NO: 7 as target cells (T), and the cells stimulated with the natural peptide of SEQ ID NO: 7 or the altered peptide of SEQ ID NO: 3 as described above (effector cells)(E) at an E/T ratio of 10, 20 or 40. […] Further, a lung cancer cell line positive for WT1 and positive for an HLA-A24, RERF-LC-AI cells; a lung cancer cell line positive for WT1 and negative for an HLA-A2402, 11-18 cells; or a lung cancer cell line negative for WT1 and positive for an HLA-A24, 11-18 cells were used as target cells to determine the cytotoxic activities of the effector cells described above in a similar manner by ^51Cr release assay.

[2] = system: C1R-A*2402 cells pulsed with the natural peptide of SEQ ID NO: 7; details: PBMC from HLA-A2402 positive healthy donors stimulated in vitro with 10 μM peptide; E/T ratio of 10, 20 or 40
Experimental: as §1, §2

For RYPGVAPTL [peptide G], the “cytotoxic activity of effector cells on lung cancer cell lines” value [1] was “CTLs were induced” and the “CTL-inducing activity (cytotoxic activity)” value [2] was “CTLs were induced”.
